# Calls of active or inactive are those of the source.
# How the values were obtained:
# [1] = molecular target: 26S proteasome non-ATPase regulatory subunit 14 (Homo sapiens, UniProt O00487); assay: inhibition of proteasome subunit RPN11 – biochemical, fluorescence polarization, uHTS hits, confirmation (AID 602368); type: functional
# X-box-binding protein 1 = X-box-binding protein 1 (Homo sapiens, UniProt P17861); type: functional, Cricetulus griseus;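 further: confirmatory dose-response counter-screen serving a CHOP assay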
# [2] = molecular target: 72 kDa type IV collagenase (Homo sapiens, UniProt P08253); assay: Dose Response validation of uHTS RPN11 inhibitor hits using a MMP-2 Fluorescence assay.; type: functional
# Prothrombin = Prothrombin (Bos taurus, UniProt P00735); assay: thrombin protease inhibitors – biochemical, fluorescence polarization, uHTS hits, dose response (AID 602369); type: functional
# Salmon testes DNA = assay: acridine orange-DNA binding displacement – biochemical, fluorescence polarization, cherry-picked samples, set 2, artefact control for KSHV LANA DNA-binding inhibitor project, dose response (AID 504727); design: species or system Salmonidae
# Keap1/Nrf2 = Keap1/Nrf2 (Homo sapiens, UniProt Q14145); assay: disruptors of Keap1 binding to Nrf2 peptide – biochemical, fluorescence polarization, cherry-picked samples, dose response (AID 588683)
# ORF 73 = molecular target: T1, ORF 73 (Human herpesvirus 8, UniProt O40947); assay: KSHV LANA DNA-binding disruption – biochemical, fluorescence polarization, cherry-picked samples, dose response (AID 504725); design: species or system Human gammaherpesvirus 8;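 further: fluorescence polarization of a labeled DNA duplex reporting LANA DNA binding; potency is for inhibitors that block LANA binding to the DNA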
# T1 sequence (O40947 whole entry): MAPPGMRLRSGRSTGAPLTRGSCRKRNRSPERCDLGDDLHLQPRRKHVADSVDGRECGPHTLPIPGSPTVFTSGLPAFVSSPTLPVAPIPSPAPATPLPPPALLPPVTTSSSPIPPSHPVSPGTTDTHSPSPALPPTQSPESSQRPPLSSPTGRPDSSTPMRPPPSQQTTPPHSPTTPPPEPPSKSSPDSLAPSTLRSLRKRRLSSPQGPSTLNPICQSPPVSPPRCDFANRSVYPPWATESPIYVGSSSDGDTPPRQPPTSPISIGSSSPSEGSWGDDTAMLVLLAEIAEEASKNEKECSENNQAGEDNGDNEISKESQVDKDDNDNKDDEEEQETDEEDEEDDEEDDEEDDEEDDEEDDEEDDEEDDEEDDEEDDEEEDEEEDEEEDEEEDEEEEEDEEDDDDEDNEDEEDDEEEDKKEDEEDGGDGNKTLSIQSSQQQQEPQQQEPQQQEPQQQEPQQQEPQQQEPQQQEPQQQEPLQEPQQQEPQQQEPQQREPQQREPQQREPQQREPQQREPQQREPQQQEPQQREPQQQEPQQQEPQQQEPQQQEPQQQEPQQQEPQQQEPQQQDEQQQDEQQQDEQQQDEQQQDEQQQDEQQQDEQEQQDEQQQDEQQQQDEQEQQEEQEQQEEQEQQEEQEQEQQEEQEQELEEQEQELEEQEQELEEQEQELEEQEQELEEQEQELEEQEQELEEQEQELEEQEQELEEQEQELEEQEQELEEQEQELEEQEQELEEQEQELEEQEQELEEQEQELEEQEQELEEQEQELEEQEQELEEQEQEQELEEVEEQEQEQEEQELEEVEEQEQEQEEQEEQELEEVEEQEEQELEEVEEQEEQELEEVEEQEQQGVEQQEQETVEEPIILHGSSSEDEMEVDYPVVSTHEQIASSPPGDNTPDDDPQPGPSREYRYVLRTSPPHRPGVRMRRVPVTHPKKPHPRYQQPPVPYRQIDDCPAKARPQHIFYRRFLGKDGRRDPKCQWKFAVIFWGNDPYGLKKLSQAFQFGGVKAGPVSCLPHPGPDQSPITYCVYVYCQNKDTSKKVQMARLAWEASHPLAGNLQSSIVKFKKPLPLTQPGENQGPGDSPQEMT
# [3] = molecular target: T2, Corticotropin-releasing factor receptor 2/Corticotropin-releasing factor-binding protein (Homo sapiens, UniProt P24387+Q13324); assay: activators of CRF receptor 2 with binding protein – uHTS hits, confirmation (AID 602473); type: functional; settings: read-out: EC50_Mean
# T2 sequence (Q13324 whole entry): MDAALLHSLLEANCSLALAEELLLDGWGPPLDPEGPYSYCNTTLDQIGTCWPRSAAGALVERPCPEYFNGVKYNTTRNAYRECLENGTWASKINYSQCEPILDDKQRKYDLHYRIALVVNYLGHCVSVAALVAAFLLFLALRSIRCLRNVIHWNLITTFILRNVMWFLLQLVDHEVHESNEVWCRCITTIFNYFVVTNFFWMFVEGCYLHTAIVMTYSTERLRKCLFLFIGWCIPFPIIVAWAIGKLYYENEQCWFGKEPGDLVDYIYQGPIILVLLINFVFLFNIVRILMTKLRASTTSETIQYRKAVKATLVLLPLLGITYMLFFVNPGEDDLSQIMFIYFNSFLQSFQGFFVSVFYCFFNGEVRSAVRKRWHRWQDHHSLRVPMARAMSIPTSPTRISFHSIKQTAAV
# T2 sequence (P24387 whole entry): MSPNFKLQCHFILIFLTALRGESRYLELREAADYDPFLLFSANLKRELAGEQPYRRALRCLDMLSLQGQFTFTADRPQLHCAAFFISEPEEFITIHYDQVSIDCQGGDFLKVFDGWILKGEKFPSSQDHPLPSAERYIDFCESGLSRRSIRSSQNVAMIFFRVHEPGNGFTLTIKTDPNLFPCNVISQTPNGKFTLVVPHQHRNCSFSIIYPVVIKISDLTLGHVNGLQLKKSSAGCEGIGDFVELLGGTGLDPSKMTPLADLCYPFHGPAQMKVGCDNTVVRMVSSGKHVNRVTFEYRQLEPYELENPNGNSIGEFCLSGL
# cells = type: functional, cell-based; settings: PPC-1
# Phosphomannomutase 2 = molecular target: T3, Phosphomannomutase 2 (Homo sapiens, UniProt O15305); assay: Counter screen SAR assay for PMM2 inhibitors via a fluorescence intensity assay. [Related pubchem assays (depositor defined):AID1545, AID1574]
# T3 sequence (O15305 whole entry): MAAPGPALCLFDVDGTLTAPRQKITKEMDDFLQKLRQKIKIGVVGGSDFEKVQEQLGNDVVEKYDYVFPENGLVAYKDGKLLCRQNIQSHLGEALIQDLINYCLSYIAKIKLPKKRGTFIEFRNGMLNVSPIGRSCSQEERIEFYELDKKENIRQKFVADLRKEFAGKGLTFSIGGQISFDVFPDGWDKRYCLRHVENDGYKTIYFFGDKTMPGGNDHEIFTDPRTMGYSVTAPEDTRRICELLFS
# Cytochrome P450 2C19 = Cytochrome P450 2C19 (Homo sapiens, UniProt P33261); assay: Cytochrome panel assay with activity outcomes. Panel member name: p450-cyp2c19 Compounds with AC50 equal or less than 10 uM are considered active; type: functional
# [4] = viability of HCT116 lacking mutant beta-catenin – cell-based, human colon tumor, dose response (AID 1045); type: functional;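 further: HCT116 colon tumor cells with beta catenin knocked out; cells exposed to compound for 60 hours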
# [5] = viability of PTEN-deleted HCT116 cells – cell-based, HCT116 PTEN knockout, dose response (AID 1047); type: functional;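 further: HCT116 colon tumor cells with PTEN knocked out; cells exposed to compound for 60 hours before readout; potency for loss of cell viability measured by luminescence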
# [6] = NIH3T3 cell viability loss – ATP luminescence, mouse fibroblasts, counter-screen, dose response (AID 2010); type: functional, cell-based;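 further: cells exposed to compound for about 90 hours before reading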
# MDA-MB-435 = assay: cells; type: functional, cell-based; settings: Homo sapiens
# [7] = molecular target: T4, Replicative DNA helicase DnaB (Mycobacterium tuberculosis, UniProt P9WMR3); assay: DnaB intein splicing inhibitors, dose response, biochemical, cell-free fluorescence (AID 449749); type: functional
# T4 sequence (P9WMR3 whole entry): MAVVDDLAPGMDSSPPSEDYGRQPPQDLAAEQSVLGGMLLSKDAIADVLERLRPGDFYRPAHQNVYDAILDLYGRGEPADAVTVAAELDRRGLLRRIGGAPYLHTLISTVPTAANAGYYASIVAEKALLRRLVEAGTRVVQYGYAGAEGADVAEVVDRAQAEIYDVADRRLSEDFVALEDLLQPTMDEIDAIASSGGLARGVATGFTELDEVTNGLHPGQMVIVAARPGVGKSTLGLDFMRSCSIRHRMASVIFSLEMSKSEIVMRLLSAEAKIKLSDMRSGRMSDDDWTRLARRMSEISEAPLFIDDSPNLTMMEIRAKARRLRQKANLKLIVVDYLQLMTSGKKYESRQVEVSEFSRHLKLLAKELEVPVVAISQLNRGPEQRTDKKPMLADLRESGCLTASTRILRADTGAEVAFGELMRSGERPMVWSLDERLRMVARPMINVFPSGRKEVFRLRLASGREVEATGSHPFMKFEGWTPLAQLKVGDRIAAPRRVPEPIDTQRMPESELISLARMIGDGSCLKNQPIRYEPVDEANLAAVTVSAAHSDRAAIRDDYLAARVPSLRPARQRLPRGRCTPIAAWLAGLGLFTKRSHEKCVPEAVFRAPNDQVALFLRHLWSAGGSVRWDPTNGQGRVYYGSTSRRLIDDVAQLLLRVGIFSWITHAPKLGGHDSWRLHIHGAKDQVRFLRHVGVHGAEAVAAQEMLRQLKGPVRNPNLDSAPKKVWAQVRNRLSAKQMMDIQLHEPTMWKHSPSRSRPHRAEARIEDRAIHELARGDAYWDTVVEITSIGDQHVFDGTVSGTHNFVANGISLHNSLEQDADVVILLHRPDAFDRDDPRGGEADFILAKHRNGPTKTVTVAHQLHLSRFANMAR
# Protein RecA = molecular target: T5, Protein RecA (Mycobacterium tuberculosis, UniProt P9WHJ3); assay: Fluorescence Cell-Free Homogeneous Dose Retest to Identify Inhibitors of RecA-Intein Splicing Activity. [Related pubchem assays (depositor defined):AID2097, AID2223, AID489010, AID492950]; type: functional
# T5 sequence (P9WHJ3 whole entry): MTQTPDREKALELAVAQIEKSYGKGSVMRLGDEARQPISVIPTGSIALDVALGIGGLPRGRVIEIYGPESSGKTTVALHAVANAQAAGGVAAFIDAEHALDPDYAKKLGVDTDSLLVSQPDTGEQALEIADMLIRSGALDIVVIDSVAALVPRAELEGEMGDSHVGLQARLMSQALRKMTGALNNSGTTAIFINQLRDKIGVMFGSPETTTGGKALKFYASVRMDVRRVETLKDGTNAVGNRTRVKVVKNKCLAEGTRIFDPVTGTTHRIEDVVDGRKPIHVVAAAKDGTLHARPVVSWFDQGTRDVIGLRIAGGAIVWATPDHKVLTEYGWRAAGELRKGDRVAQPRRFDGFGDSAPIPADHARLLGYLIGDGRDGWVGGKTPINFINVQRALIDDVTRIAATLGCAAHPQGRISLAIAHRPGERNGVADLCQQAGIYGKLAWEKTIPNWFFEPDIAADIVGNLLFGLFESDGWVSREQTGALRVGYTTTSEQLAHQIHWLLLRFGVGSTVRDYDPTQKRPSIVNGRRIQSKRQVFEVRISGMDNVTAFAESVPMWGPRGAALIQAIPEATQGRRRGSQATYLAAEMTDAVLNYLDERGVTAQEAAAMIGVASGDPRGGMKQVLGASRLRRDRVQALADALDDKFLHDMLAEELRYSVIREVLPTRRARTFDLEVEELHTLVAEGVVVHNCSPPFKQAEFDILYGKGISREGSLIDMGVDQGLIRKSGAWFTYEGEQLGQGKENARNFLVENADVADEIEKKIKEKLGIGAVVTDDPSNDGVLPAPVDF
# Genome polyprotein = Genome polyprotein (dengue virus type 2, UniProt P29990); assay: flavivirus cap methylation enzyme inhibition – biochemical, confirmation dose response, primary screen (AID 588689); type: functional
# [8] = protection from phage-mediated lysis, alamar blue read-out – E. coli UTI89, K1F phage, bacterial capsule biogenesis inhibitors (AID 488966); type: functional
# [9] = molecular target: T6, Voltage-gated N-type calcium channel alpha-1B subunit/Amyloid beta A4 precursor protein-binding family A member 1 (Homo sapiens, UniProt Q00975+Q02410); assay: disruptors of Mint-PDZ/N-type channel peptide interaction – biochemical, HTRF, SAR follow-up (AID 2489); type: functional
# [10] = molecular target: T6, Voltage-gated N-type calcium channel alpha-1B subunit/Amyloid beta A4 precursor protein-binding family A member 1; assay: disruptors of Mint-PDZ/N-type channel peptide interaction – biochemical, HTRF, set 2, SAR follow-up (AID 434980); type: functional
# Protein Rev = Protein Rev (Human immunodeficiency virus type 1 group M subtype B (isolate HXB2)(HIV-1), UniProt P04618); assay: blockers of HIV Rev/RRE RNA complex – biochemical, fluorescence polarization, HIV-1, dose response (AID 434976); design: species or system Human immunodeficiency virus 1
# [11] = molecular target: Female germline-specific tumor suppressor gld-1 (Caenorhabditis elegans, UniProt Q17339); assay: blockers of GLD-1/TGE RNA complex formation – biochemical, fluorescence polarization, C. elegans, dose response (AID 2802);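 further: fluorescence polarization of labeled TGE RNA bound by purified gld-1 protein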
# [12] = molecular target: T7, Polyadenylate-binding protein 1 (Homo sapiens, UniProt P11940); assay: MLLE binding blockers, Cy5 peptide tracer – biochemical, fluorescence polarization, Cy5-PAM2 peptide, secondary, miRNA deadenylation inhibitor project, dose response (AID 602260); type: functional; settings: read-out: IC50_Mean
# [13] = molecular target: T7, Polyadenylate-binding protein 1; assay: MLLE domain peptide-binding blockers, IC50 – biochemical, fluorescence polarization, FITC-PAM2 peptide, dose response (AID 602259); type: functional; settings: read-out: IC50_Mean
# T7 sequence (P11940 whole entry, the tested form may be a part): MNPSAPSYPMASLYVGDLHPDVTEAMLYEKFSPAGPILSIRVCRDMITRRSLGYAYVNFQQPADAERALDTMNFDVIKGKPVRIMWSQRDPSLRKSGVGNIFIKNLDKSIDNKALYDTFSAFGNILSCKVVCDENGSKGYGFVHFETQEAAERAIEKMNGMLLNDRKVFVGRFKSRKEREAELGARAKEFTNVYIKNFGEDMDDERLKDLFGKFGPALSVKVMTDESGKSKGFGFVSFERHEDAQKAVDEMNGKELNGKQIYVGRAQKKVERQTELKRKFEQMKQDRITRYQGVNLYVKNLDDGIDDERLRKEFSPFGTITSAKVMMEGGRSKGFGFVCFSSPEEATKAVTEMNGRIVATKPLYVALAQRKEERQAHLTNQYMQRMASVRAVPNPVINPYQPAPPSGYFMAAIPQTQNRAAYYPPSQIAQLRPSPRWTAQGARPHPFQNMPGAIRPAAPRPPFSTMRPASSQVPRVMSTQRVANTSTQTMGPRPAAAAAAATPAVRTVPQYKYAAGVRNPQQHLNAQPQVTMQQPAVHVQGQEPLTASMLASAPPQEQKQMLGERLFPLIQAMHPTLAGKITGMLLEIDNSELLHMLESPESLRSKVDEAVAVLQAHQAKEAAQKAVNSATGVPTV
# T6 sequence (Q00975 whole entry): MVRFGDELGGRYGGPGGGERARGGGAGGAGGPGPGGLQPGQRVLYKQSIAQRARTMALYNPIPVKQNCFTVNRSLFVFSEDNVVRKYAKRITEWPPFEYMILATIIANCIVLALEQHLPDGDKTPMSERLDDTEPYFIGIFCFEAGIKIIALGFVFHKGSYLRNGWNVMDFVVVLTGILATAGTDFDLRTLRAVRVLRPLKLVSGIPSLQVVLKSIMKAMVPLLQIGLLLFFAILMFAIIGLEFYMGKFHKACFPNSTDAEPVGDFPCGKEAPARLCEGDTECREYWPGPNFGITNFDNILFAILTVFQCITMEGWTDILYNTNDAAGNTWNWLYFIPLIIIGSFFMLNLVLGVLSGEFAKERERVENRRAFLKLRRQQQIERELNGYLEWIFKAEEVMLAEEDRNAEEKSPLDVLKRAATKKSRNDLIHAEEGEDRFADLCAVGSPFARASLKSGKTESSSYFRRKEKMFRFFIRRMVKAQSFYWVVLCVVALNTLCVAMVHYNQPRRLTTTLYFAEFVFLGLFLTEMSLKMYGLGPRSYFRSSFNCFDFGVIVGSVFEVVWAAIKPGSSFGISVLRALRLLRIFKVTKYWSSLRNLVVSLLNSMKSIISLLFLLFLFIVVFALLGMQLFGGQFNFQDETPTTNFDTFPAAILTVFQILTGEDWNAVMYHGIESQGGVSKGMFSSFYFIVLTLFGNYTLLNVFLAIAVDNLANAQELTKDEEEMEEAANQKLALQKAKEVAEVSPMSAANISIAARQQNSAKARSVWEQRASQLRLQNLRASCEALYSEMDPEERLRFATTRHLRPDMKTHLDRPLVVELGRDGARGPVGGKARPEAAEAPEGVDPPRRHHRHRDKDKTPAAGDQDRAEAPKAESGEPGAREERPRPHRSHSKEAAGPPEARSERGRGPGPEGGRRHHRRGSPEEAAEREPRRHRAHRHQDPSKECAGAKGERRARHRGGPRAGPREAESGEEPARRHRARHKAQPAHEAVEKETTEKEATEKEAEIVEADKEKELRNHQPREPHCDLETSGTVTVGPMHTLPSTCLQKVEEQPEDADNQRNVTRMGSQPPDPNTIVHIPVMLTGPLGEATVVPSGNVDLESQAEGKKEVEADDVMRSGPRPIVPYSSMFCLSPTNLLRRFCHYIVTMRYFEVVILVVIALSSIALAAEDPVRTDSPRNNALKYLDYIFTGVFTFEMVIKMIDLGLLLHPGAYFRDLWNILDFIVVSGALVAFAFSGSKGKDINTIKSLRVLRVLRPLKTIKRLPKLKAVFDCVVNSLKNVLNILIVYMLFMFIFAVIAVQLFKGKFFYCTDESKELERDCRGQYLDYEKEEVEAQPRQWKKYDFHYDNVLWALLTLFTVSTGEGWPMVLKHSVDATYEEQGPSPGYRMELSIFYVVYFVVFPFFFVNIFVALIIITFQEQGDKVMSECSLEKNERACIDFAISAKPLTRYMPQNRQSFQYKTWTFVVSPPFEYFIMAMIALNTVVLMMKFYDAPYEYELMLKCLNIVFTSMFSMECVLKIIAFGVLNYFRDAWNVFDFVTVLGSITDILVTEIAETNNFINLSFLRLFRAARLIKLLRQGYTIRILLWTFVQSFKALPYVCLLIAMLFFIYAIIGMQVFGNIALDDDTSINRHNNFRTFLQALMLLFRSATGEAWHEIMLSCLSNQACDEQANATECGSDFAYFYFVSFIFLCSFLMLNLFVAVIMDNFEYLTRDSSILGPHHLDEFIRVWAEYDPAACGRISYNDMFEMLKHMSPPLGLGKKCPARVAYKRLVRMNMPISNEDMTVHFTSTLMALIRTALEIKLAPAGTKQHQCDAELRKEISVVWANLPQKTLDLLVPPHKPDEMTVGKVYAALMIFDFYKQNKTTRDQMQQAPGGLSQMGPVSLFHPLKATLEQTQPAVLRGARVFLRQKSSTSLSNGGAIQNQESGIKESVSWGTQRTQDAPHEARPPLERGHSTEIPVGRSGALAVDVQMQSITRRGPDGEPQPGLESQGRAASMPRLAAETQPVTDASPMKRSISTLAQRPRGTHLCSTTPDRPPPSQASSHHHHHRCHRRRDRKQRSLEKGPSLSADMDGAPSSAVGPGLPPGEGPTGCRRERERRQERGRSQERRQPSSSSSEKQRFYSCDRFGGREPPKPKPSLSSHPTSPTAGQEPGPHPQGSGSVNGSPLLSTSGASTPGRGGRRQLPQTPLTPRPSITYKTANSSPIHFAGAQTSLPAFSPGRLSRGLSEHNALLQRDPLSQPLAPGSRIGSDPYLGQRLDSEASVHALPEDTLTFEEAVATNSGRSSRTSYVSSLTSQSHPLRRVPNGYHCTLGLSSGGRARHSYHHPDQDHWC
# T6 sequence (Q02410 whole entry): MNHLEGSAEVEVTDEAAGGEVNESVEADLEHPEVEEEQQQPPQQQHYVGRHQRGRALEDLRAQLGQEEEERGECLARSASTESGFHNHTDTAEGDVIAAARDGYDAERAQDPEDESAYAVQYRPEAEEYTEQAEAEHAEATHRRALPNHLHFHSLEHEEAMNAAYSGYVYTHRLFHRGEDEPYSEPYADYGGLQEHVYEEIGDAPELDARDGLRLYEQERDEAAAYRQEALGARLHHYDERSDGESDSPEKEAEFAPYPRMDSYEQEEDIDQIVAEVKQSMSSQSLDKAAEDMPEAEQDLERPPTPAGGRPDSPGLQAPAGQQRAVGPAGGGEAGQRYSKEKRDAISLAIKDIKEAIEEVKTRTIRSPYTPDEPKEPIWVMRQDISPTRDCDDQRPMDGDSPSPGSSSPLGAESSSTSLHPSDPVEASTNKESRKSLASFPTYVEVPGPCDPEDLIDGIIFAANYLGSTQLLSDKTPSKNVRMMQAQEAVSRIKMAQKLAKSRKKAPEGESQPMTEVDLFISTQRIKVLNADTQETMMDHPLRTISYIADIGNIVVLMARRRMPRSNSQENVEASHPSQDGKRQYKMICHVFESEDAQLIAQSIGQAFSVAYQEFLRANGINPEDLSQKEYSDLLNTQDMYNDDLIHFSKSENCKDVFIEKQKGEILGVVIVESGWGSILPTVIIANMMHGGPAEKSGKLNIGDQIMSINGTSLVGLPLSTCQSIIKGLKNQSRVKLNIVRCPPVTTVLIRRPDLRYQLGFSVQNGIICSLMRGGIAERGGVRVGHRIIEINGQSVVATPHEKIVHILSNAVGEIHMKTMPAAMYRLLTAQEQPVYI
# Sequence of Cytochrome P450 2C19 (P33261 whole entry): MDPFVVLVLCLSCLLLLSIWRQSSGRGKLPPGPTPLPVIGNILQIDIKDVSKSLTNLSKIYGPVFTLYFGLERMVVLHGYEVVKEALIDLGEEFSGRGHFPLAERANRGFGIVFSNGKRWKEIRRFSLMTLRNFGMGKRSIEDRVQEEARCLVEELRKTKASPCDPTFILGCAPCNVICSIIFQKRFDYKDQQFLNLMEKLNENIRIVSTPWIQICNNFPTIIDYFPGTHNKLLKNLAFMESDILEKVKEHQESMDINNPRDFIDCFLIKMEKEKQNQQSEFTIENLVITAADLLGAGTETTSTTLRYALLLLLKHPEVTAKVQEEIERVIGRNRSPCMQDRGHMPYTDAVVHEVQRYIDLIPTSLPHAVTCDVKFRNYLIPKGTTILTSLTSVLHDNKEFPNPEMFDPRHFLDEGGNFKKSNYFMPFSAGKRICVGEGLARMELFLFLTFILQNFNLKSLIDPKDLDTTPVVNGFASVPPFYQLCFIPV
# Sequence of 26S proteasome non-ATPase regulatory subunit 14 (O00487 whole entry): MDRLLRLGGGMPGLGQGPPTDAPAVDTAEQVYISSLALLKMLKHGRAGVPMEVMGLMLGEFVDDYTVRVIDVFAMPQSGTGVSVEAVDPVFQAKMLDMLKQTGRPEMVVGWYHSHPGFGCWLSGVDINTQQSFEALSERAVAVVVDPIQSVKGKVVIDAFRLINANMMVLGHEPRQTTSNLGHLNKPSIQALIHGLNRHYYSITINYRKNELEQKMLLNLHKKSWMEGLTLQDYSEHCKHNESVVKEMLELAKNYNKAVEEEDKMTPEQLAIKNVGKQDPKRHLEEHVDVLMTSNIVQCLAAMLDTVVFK
# Sequence of X-box-binding protein 1 (P17861 whole entry): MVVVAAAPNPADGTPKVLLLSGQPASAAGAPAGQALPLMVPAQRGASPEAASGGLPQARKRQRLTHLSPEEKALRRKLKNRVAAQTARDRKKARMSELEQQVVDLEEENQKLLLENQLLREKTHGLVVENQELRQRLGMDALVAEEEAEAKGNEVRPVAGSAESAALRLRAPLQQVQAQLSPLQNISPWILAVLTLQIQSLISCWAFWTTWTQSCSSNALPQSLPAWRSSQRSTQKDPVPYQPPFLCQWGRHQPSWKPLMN
# Sequence of Protein Rev (P04618 whole entry): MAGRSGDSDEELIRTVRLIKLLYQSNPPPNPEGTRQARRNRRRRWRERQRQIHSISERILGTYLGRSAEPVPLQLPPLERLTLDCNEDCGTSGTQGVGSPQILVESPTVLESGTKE
compound,measurement,setting,value
Cc1cccc(OCc2nnc(SCc3nc(O)c4ccc(C(F)(F)F)cc4n3)o2)c1,IC50,[1],21.5 µM (active)
same,Absolute IC50 (XBP1),X-box-binding protein 1,10 µM
same,IC50,[2],> 100 µM (inactive)
same,IC50,Prothrombin,29.7 µM (active)
Cc1ccccc1N1C(=O)c2cccc3c(N(C)CCO)ccc(c23)C1=O,AC50,Salmon testes DNA,68.4 µM (active)
same,AC50,Keap1/Nrf2,> 52 µM (inactive)
same,AC50,ORF 73,172 µM (active)
same,EC50,[3],5.5 µM (active)
CSc1nc(-c2ccc(C)cc2)nc(C(Cl)Cl)n1,IC50,cells,> 10 µM (inactive)
same,IC50,Phosphomannomutase 2,> 100 µM (inactive)
same,AC50,Cytochrome P450 2C19; read-out: AC50,0.398 µM (inconclusive)
same,EC50,[4],0.714 µM (active)
same,EC50,[5],0.824 µM (active)
same,EC50,[6],> 60 µM (inconclusive)
same,IC50,MDA-MB-435,> 10 µM (inactive)
N=C1/C(=C\c2ccc(OC(=O)c3ccc(F)cc3)cc2)C(=O)N=C2SC(N3CCOCC3)=NN12,AC50,[7],22.4 µM (active)
same,EC50,Protein RecA,17.1 µM (active)
same,IC50,Genome polyprotein,19.2 µM (active)
same,IC50,[8],> 75 µM (active)
O=C(c1cc(-c2ccco2)nc2ccccc12)N1CCN(c2ccccc2)CC1,IC50,[9],> 56.8 µM (inactive)
same,IC50,[10],> 56.8 µM (inactive)
O=c1nc2[nH]c3ccccc3nc-2c(=O)[nH]1 [ALLOXAZINE],AC50,Cytochrome P450 2C19,inconclusive
same,IC50,Protein Rev,12.4 µM (not active)
same,IC50,[11],1.47 µM (active)
same,IC50,[12],> 66 µM (inactive)
same,IC50,[13],35.8 µM (inactive)

# From ChEMBL document CHEMBL1201862, “PubChem BioAssay data set” (2004)
